Assay results: patent US7855290B2, “Pyridine derivatives and pyrimidine derivatives (3)” (Eisai R&D Management Co., Ltd., priority 2005, dated 2010)
pIC50: −log10 of the molar value.

Key:
[1] = test system: Human gastric cancer cells (MKN-45); assay: Inhibitory activity against the proliferation of human gastric cancer cells (MKN-45); type: cell-based; conditions: 72 h, MKN-45, 1% FBS RPMI1640, 3 days, Cell Counting Kit-8
Procedure: Human gastric cancer cells (MKN-45) were suspended in a 1% FBS-containing RPMI1640 medium (purchased from Sigma). The cell suspension (1×10^4 cells/ml) was added in a 96-well plate for cell culture (purchased from NUNC, Production No. 167008) at 0.1 ml/well, and then cultured in a 5% CO2 incubator (37° C.) overnight. After the culture, each well was supplied with 0.1 ml of a test substance diluted with a 1% FBS-containing RPMI1640 medium, followed by culturing in a 5% CO2 incubator (37° C.) for 3 days. After the culture, each well was supplied with 10 μl of Cell Counting Kit-8 (purchased from DOJINDO, Production No. 343-07623), followed by incubation in a 5% CO2 incubator (37° C.) for about 1.5 hrs. After the incubation, using the Plate Reader MTP-500 (Corona Electric), the absorbance of each well was determined at a measurement wavelength of 450 nm and a reference wavelength of 660 nm.

[2] = target: T1, His6-HGFR (HGFR cytoplasmic domain) (Homo sapiens, UniProt P08581); assay: Inhibitory activity against HGFR tyrosine kinase activity (HTRF); type: biochemical; conditions: biotin-poly(GT), ATP, 30° C. 10 min
T1 construct: made in house; host or cells: Sf9 insect cells (Spodoptera frugiperda), baculovirus, pFastBac-HT vector
T1 sequence (P08581 956-1390 limits assumed): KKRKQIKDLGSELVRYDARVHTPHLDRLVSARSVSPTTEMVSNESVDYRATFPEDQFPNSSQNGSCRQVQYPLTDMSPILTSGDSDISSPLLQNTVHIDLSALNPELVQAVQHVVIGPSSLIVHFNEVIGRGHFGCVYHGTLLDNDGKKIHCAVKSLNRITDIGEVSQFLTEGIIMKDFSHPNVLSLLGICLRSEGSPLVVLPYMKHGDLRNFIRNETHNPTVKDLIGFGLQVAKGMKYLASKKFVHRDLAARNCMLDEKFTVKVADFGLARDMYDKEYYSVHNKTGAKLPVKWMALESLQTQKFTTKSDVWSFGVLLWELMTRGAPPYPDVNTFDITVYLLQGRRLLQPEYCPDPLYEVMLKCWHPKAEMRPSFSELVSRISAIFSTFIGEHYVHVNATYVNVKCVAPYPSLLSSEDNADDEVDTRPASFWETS
Excerpt: The cytoplasmic domain of HGFR (Genbank Accession No. J02958) is a 1.3 kb DNA fragment beginning with Lys974 and including a stop codon, and described by Park et al. (Proc. Natl. Acad. Sci. U.S.A. 84(18), 6379-6383, 1987). The DNA fragment was isolated from the human placental cDNA library (purchased from Clontech) by PCR (TaKaRa Ex Taq™ Kit, purchased from TaKaRa) using two kinds of primers (SEQ ID NO: 1,5′-[…]-3′ and SEQ ID NO: 2,5′-[…]-3′, purchased from Invitrogen). The DNA fragment was cloned into a baculovirus transplace vector (pFastBac™-HT (purchased from GIBCO BRL)) to produce a recombinant construct. […] EGFR was purchased from Sigma (Production No. E-2645).
To the suspension of Sf9 cells (3×10^8 cells) in SF-900II medium (purchased from Invitrogen) containing 2% FBS was added a solution of HGFR transfected baculovirus above (4 ml), followed by a shaking culture at 27° C. for 48 hrs. The cells infected with the HGFR transfected baculovirus were centrifuged at 1,000 rpm, 4° C. for 5 min to remove the supernatant. The precipitated infected cells were suspended in 80 ml of ice-cold PBS, and centrifuged at 1,000 rpm, 4° C. for 5 min to remove the supernatant. The precipitated infected cells were suspended in 40 ml of ice-cold Lysis Buffer (50 mM Tris-HCl (pH 8.5), 5 mM 2-mercaptoethanol, 100 mM KCl, 1 mM PMSF and 1% (v/v) NP-40). The suspension was centrifuged at 12,000 rpm, 4° C. for 30 min to provide a supernatant.
The supernatant was loaded onto an Ni-NTA agarose column (3 ml, purchased from Qiagen) equilibrated with 30 ml of Buffer A (20 mM Tris-HCl (pH 8.5), 5 mM 2-mercaptoethanol, 500 mM KCl, 20 mM imidazole and 10% (v/v) glycerol). The column was washed with 30 ml of Buffer A, 6 ml of Buffer B (20 mM Tris-HCl (pH 8.5), 5 mM 2-mercaptoethanol, 1 M KCl, and 10% (v/v) glycerol) and 6 ml of Buffer A in this order. Then, the column was eluted with 6 ml of Buffer C (20 mM Tris-HCl (pH 8.5), 5 mM 2-mercaptoethanol, 100 mM KCl, 100 mM imidazole, and 10% (v/v) glycerol) to provide a fraction. The fraction was entrapped in a dialysis membrane (purchased from Spectrum Laboratories), dialyzed at 4° C. overnight with 1 L of dialysis buffer (20 mM Tris-HCl (pH 7.5), 10% (v/v) glycerol, 1 mM dithiothreitol, 0.1 mM Na3VO4 and 0.1 mM EGTA), and stored at −80° C. until used. […] The VEGFR2 cytoplasmic domain, the FGFR1 cytoplasmic domain, and the PDGFRβ cytoplasmic domain were fused with six histidine at the N terminus by the similar method to produce respective recombinant proteins (His6-VEGFR2, His6-FGFR1, and His6-PDGFRβ).
To each well of a 96-well round plate (purchased from NUNC, Production No. 163320) were added 10 μl of a solution for kinase reaction (200 mM Hepes (pH 7.4), 80 mM MgCl2, 16 mM MnCl2 and 2 mM Na3VO4), 250 ng of biotinylated poly(Glu4: Tyr1) (biotin-poly(GT), purchased from Japan Schering) (6 μl, 15-fold diluted with distilled water), 30 ng of His6-HGFR (10 μl, 60-fold diluted with 0.4% BSA) and a test substance dissolved in dimethylsulfoxide (4 μl, 100-fold diluted with 0.1% BSA) to mess up to 30 μl. To the well was added 10 μl of 4 μM ATP (purchased from Sigma) diluted with distilled water to incubate at 30° C. for 10 min, followed by adding 10 μl of 500 mM EDTA (pH 8.0) (purchased from Wako Pure Chemicals) to provide a kinase reaction solution.
The tyrosine-phosphorylated biotin-poly(GT) was detected using the Homogenous Time-Resolved Fluorescence (HTRF) method (Analytical Biochemistry, 269, 94-104, 1999).

HGFR = target: T2, HGFR (Homo sapiens, UniProt P08581); assay: Inhibitory activity against the HGFR autophosphorylation using ELISA (MKN-45 cells); type: cell-based; conditions: 1 hr with test substance
T2 construct: endogenous in cells; host or cells: MKN-45 human gastric cancer cells
T2 sequence (P08581 25-1390): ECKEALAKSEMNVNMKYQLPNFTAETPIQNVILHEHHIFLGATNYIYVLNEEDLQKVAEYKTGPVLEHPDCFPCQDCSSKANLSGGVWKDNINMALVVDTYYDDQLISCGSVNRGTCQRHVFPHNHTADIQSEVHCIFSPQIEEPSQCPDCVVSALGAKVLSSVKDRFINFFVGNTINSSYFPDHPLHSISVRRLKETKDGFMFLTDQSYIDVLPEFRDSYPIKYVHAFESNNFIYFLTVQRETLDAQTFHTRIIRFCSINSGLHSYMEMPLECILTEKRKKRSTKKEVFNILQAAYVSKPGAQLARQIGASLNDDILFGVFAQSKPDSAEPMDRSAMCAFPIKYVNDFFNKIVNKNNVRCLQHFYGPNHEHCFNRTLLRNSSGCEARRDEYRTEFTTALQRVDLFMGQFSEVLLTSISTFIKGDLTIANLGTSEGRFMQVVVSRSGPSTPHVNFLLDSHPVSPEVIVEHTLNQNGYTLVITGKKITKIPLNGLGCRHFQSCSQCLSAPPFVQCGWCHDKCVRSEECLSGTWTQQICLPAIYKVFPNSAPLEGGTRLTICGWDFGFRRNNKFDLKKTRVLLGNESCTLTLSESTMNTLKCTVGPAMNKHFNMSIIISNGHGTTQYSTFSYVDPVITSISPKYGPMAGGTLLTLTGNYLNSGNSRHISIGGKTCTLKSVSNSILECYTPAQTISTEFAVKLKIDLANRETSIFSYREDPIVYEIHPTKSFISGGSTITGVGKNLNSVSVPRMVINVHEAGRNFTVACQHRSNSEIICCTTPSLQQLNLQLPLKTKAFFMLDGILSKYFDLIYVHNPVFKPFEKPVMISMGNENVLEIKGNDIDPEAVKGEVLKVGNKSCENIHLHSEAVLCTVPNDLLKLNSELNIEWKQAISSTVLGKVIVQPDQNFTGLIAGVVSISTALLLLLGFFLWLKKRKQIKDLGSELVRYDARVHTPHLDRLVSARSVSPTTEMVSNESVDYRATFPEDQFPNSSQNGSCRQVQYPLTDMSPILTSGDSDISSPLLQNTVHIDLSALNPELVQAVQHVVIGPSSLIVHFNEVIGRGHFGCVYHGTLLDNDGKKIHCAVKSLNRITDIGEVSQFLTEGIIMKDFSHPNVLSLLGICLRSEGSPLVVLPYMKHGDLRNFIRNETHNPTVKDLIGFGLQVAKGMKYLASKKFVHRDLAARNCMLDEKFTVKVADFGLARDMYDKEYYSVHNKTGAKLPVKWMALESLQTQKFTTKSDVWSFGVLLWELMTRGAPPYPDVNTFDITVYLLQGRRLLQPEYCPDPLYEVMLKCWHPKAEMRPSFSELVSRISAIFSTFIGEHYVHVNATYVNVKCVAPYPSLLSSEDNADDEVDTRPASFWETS
Procedure: Human gastric cancer cells (MKN-45) were suspended in a 1% FBS-containing RPMI1640 medium (purchased from Sigma). The cell suspension (1×10^5 cells/ml) was put in a 96-well plate for cell culture (purchased from NUNC, Production No. 167008) at 0.1 ml/well, and then cultured in a 5% CO2 incubator (37° C.) overnight. After the culture, from each well was removed the supernatant, followed by adding 0.05 ml of a 1% FBS-containing RPMI1640 medium. Then, the well was supplied with 0.05 ml of the test substance dissolved in dimethyl sulfoxide (diluted with a 1% FBS-containing RPMI1640 medium), followed by culturing in a 5% CO2 incubator (37° C.) for 1 hr. From each well was removed the supernatant, and each well was washed with 150 μl of PBS, followed by adding 100 μl of a lysis buffer (50 mM Hepes (pH 7.4), 150 mM NaCl, 10% (v/v) glycerol, 1% Triton X-100, 1.5 mM MgCl2, 1 mM EDTA (pH 8.0), 100 mM NaF, 1 mM PMSF, 10 μg/ml Aprotinin, 50 μg/ml Leupeptin, 1 μg/ml Pepstatin A and 1 mM Na3VO4). The plate was shaken at 4° C. for 1 hr to prepare the cell extract.
To a 96-well plate for ELISA (purchased from COSTAR, Production No. 3369) was added 50 μl of 60 mM bicarbonate buffer (pH 9.6) containing 50 μg/ml of an anti-phosphotyrosine antibody (PY20, purchased from Transduction Laboratory, Production No. P-11120). The plate was incubated at 4° C. overnight.
Each well of the plate prepared in 2. was washed three times with 200 μl of PBS, and supplied with 150 μl of 3% BSA/PBS, followed by incubating at room temperature for 2 hrs. Each well was washed three times with 200 μl of PBS, and supplied with 50 μl of the above cell extract, followed by incubating at 4° C. overnight. After the incubation, each well was washed three times with 250 μl of a washing solution (0.1% BSA, 20 mM Tris-HCl (pH 7.6), 137 mM NaCl, and 0.05% Tween-20), and supplied with 70 μl of anti-HGFR antibody (h-Met(C-12), purchased from Santa Cruz, Production No. sc-10) 2,000-fold diluted with a reaction solution (1% BSA, 20 mM Tris-HCl (pH 7.6), 137 mM NaCl and 0.05% Tween-20), followed by incubating at room temperature for 1 hr. The well was washed three times with 250 μl of the washing solution, and supplied with 70 μl of peroxidase-labelled anti-rabbit IgG antibody (purchased from Cell Signaling, Production No. 7074) 2,000-fold diluted with the reaction solution, followed by incubating at room temperature for 1 hr. Each well was washed three times with 250 μl of the washing solution, and supplied with 70 μl of TMB Membrane Peroxidase Substrate (purchased from Funakoshi, Production No. 50-5077-03), followed by incubating at room temperature for 10 min. Each well was supplied with 70 μl of 1 M phosphoric acid, and using the Plate Reader MTP-500 (Corona Electric), the absorbance of the well was instantly determined at a measurement wavelength of 450 nm. While defining the absorbance of a well supplied with the cell extract having no test substance as 100% HGFR autophosphorylation activity, and the absorbance of a well supplied with 50 μl of the lysis buffer as 0% HGFR autophosphorylation activity, the HGFR autophosphorylation activity (%) was calculated for each well.

| pIC50 [1] | pIC50 [2] | pIC50 (HGFR) | SMILES |
| --- | --- | --- | --- |
| 8.30 | – | – | O=C(Nc1cc(Oc2cc(F)c(NC(=O)C3(C(=O)Nc4ccc(F)cc4)CC3)cc2F)ccn1)N1CC(O)C1 [Example 91, N-[2,5-Difluoro-4-[(2-{[(3-hydroxyazetidin-1-yl)carbonyl]amino}pyridin-4-yl)oxy]phenyl}1-N′-(4-fluorophenyl)cyclopropane-1,1-dicarboxamide] |
| – | 6.60 | 6.42 | CN1CCC(N(C)C(=O)Nc2cc(Oc3ccc(NC(=O)C4(C(=O)Nc5cccnc5)CC4)c(F)c3)ccn2)CC1 [Example 51, N-(2-Fluoro-4-{[2-({[methyl(1-methylpiperidin-4-yl)amino]carbonyl}amino)pyridin-4-yl]oxy}phenyl)-N′-pyridin-3-ylcyclopropane-1,1-dicarboxamide] |
| – | 6.74 | 6.59 | CN1CCC(N(C)C(=O)Nc2cc(Oc3ccc(NC(=O)C4(C(=O)NCc5ccccc5)CC4)c(F)c3)ccn2)CC1 [Example 49, N-Benzyl-N′-(2-fluoro-4-{[2-({[methyl(1-methylpiperidin-4-yl)amino]carbonyl}amino)pyridin-4-yl]oxy}phenyl)cyclopropane-1,1-dicarboxamide] |

Further lines, the molecule ahead of its results:

| SMILES | pIC50 [1] | pIC50 [2] | pIC50 (HGFR) |
| --- | --- | --- | --- |
| CN(C)CC1CCN(C(=O)Nc2cc(Oc3ccc(NC(=O)C4(C(=O)Nc5ccc(F)cc5)CCC4)cc3F)ccn2)CC1 [Example 6, N-[4-({2-[({4-[(Dimethylamino)methyl]piperidin-1-yl}carbonyl)amino]pyridin-4-yl}oxy)-3-fluorophenyl]-N′-(4-fluorophenyl)cyclobutane-1,1-dicarboxamide] | – | 6.19 | – |
| CN1CCC(N(C)C(=O)Nc2cc(Oc3ccc(NC(=O)C4(C(=O)NCC(C)(C)C)CC4)c(F)c3)ccn2)CC1 [Example 53, N-(2,2-Dimethylpropyl)-N′-(2-fluoro-4-{[2-({[methyl(1-methylpiperidin-4-yl)amino]carbonyl}amino)pyridin-4-yl]oxy}phenyl)cyclopropane-1,1-dicarboxamide] | – | 6.57 | 6.43 |
| CN1CCC(N(C)C(=O)Nc2cc(Oc3cc(F)c(NC(=O)C4(C(=O)Nc5ccc(F)cc5)CC4)cc3F)ccn2)CC1 [Example 94] | 8.31 | – | – |
| CN1CCC(N(C)C(=O)Nc2cc(Oc3ccc(NC(=O)C4(C(=O)NC5CCCC5)CC4)c(F)c3)ccn2)CC1 [Example 52, N-Cyclopentyl-N′-(2-fluoro-4-{[2-({[methyl(1-methylpiperidin-4-yl)amino]carbonyl}amino)pyridin-4-yl]oxy}phenyl)cyclopropane-1,1-dicarboxamide] | – | 6.80 | 6.77 |
